# Active and inactive are the calls of the source. The rule behind the calls is not given here.
# What was measured:
# [1] = target: Cyclin-dependent kinase 2 (Homo sapiens) (UniProt P24941); assay: Inhibition of CDK2 Lys1 labeling site in human Huh-7 cells at 1 uM by KiNativ Profiling analysis relative to control; assay type: cell-based
# [2] = target: Mitogen-activated protein kinase kinase kinase 20 (Homo sapiens, UniProt Q9NYL2); assay: Inhibition of ZAK Lys1 labeling site in human Huh-7 cells at 1 uM by KiNativ Profiling analysis relative to control; assay type: cell-based
# Mitogen-activated protein kinase kinase kinase 20, sequence (Q9NYL2 2-800 limits assumed): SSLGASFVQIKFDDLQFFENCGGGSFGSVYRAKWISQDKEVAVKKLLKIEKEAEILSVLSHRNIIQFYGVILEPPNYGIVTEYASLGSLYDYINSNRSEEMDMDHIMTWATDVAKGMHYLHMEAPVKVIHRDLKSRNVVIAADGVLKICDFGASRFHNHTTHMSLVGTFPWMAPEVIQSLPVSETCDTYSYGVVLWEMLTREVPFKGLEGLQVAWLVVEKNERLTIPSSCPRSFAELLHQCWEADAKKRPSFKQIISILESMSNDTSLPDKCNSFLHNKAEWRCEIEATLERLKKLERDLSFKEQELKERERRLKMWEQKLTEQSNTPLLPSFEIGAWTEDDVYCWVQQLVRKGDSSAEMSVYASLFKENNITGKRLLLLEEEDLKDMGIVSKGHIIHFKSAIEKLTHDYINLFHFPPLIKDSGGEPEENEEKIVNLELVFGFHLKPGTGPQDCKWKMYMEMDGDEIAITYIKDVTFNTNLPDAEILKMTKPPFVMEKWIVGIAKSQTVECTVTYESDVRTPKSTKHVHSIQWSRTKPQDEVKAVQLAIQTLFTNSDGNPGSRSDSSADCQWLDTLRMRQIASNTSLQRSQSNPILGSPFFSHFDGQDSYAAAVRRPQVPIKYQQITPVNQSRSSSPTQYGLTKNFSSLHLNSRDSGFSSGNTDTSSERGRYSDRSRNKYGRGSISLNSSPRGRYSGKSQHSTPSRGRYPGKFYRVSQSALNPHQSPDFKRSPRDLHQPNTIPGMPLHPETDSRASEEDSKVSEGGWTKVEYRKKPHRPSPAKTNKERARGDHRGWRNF
# [3] = target: T1, Serine/threonine-protein kinase STK11 (Homo sapiens) (UniProt Q15831); assay: Inhibition of LKB1 Lys2 labeling site in human A-375 cells at 5 uM by KiNativ Profiling analysis relative to control; assay type: cell-based
# T1 sequence (whole entry): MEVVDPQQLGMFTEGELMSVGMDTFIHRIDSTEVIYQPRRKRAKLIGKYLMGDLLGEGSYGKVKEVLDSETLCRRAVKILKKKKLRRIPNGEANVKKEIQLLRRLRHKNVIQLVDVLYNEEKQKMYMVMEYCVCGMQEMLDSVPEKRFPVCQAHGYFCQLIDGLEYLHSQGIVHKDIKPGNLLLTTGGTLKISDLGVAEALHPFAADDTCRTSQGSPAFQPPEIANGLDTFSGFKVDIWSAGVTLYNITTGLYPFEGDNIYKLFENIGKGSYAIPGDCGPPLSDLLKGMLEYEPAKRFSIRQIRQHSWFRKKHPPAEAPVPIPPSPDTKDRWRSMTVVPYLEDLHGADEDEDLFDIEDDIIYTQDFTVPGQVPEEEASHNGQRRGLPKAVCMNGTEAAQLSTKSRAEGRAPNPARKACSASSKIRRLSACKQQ
# [4] = target: T2, Interleukin-1 receptor-associated kinase 4 (Homo sapiens) (UniProt Q9NWZ3); assay: Inhibition of IRAK4 Lys2 labeling site in human A-375 cells at 0.5 uM by KiNativ Profiling analysis relative to control; assay type: cell-based
# T2 sequence (whole entry): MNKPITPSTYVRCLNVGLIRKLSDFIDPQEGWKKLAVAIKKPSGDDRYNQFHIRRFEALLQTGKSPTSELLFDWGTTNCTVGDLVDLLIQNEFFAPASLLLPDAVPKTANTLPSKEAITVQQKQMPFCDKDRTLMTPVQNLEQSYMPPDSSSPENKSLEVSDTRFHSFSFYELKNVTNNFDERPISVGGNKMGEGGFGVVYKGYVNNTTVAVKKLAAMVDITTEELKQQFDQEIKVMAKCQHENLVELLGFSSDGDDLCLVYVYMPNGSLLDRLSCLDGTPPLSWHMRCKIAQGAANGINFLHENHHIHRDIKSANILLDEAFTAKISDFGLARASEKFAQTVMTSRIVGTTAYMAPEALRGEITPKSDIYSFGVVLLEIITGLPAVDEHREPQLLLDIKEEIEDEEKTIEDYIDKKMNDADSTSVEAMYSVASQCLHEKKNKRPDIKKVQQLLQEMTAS
# [5] = target: T3, NUAK family SNF1-like kinase 2 (Homo sapiens) (UniProt Q9H093); assay: Inhibition of SNARK (unknown origin) at 1 uM by Ambit Kinomescan binding assay relative to control
# T3 sequence (whole entry): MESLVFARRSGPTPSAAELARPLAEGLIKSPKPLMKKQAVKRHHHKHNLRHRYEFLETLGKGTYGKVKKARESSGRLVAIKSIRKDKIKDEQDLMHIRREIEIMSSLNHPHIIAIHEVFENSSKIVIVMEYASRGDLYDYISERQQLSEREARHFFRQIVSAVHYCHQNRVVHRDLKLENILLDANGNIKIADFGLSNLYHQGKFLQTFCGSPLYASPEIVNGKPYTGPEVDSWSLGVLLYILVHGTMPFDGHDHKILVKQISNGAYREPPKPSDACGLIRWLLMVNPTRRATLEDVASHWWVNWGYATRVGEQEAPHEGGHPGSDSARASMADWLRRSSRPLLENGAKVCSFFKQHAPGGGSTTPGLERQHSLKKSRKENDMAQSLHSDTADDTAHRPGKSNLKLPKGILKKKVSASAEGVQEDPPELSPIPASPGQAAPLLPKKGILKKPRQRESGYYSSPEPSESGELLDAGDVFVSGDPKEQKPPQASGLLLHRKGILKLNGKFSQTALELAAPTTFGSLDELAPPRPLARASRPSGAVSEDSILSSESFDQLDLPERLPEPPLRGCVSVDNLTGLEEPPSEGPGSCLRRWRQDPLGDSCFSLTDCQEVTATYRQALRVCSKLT
# [6] = target: Tyrosine-protein kinase Mer (Homo sapiens) (UniProt Q12866); assay: Inhibition of MERTK (unknown origin) at 10 uM by Ambit Kinomescan binding assay
# Tyrosine-protein kinase Mer (Homo sapiens), sequence (Q12866 whole entry): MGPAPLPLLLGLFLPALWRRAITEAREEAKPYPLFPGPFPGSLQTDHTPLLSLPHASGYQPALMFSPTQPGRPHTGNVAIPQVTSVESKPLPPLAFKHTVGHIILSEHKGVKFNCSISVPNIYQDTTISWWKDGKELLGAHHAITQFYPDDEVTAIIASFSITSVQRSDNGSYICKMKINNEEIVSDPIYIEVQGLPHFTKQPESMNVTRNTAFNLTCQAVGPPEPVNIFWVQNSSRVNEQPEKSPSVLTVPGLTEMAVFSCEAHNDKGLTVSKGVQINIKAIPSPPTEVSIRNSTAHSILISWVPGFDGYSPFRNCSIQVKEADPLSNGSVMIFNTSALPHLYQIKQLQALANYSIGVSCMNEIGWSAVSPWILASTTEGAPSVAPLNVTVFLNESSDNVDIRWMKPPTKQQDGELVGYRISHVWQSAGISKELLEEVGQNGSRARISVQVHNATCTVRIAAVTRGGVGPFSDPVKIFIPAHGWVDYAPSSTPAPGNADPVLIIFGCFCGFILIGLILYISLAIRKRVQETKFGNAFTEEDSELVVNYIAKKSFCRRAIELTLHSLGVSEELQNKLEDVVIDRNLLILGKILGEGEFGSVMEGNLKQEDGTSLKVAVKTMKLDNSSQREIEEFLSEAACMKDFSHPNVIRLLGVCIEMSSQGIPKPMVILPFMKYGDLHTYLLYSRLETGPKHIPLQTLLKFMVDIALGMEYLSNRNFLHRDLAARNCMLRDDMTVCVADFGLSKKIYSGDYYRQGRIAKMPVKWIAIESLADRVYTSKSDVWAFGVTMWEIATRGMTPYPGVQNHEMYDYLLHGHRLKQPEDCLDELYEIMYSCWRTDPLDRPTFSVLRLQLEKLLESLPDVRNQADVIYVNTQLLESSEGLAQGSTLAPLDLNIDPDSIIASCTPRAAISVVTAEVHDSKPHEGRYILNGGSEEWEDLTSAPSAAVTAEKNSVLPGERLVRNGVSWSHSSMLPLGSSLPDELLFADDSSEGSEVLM
# [7] = target: T4, Acylglycerol kinase, mitochondrial (Homo sapiens) (UniProt Q53H12); assay: Inhibition of AGK ATP labeling site in human Huh-7 cells at 1 uM by KiNativ Profiling analysis relative to control; assay type: cell-based
# T4 sequence (whole entry): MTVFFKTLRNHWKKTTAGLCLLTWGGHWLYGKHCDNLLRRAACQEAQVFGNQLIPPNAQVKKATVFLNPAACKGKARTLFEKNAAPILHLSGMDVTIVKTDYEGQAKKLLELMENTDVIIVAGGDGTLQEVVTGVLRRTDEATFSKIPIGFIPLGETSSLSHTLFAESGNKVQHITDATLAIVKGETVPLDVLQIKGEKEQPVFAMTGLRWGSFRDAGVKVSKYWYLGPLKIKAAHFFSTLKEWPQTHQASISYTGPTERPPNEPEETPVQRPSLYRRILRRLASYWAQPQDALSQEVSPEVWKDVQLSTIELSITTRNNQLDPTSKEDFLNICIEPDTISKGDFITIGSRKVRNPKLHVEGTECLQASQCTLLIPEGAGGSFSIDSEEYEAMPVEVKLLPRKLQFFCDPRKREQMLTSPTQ
# [8] = target: Platelet-derived growth factor receptor beta (Homo sapiens) (UniProt P09619); assay: Inhibition of PDGFRB (unknown origin) at 10 uM by Ambit Kinomescan binding assay relative to control
# Platelet-derived growth factor receptor beta (Homo sapiens), sequence (P09619 whole entry): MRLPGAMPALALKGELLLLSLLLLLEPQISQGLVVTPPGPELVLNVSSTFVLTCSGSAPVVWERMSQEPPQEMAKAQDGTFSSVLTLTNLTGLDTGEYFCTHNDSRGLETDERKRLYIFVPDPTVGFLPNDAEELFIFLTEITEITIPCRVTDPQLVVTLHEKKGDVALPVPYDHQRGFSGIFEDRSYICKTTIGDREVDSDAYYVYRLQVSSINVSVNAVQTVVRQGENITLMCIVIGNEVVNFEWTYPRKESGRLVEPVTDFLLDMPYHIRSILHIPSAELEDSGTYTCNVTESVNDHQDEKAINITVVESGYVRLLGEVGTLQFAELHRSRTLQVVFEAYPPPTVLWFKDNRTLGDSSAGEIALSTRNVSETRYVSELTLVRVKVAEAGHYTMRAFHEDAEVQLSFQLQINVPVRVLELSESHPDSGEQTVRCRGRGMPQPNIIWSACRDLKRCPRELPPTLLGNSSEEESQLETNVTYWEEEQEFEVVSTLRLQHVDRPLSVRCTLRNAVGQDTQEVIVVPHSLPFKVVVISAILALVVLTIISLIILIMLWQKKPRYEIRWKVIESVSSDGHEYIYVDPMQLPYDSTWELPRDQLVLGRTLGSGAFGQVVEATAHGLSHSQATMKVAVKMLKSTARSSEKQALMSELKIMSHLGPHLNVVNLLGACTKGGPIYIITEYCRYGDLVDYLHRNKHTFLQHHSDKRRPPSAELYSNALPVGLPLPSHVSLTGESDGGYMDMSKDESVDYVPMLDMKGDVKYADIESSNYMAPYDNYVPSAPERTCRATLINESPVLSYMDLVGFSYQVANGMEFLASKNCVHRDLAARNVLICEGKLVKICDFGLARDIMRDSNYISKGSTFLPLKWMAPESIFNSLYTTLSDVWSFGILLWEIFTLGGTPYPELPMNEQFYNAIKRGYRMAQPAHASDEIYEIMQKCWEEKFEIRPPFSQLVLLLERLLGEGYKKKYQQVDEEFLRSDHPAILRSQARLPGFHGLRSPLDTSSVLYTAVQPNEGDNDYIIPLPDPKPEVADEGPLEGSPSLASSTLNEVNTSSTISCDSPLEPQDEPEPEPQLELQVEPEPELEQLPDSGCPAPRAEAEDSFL
smiles,measurement,setting,value
CNc1cc(Oc2cc(C(=O)Nc3cc(N4CCN(C)CC4)cc(C(F)(F)F)c3)ccc2C)ncn1,inhibition,[1],-5.7%
same,inhibition,[2],13.8%
CCN1CCN(Cc2ccc(NC(=O)c3ccc(C)c(/C=C/c4cnc5[nH]ccc5c4OC)c3)cc2C(F)(F)F)CC1,inhibition,[3],28.7%
same,inhibition,[4],10.3%
same,inhibition,[5],76%
CCN1CCN(Cc2ccc(NC(=O)c3ccc(C)c(Oc4ccnc5[nH]ccc45)c3)cc2C(F)(F)F)CC1,inhibition,[6],inactive
same,inhibition,[7],inactive
same,inhibition,[8],0%

# Reference: ChEMBL document CHEMBL5696442, “Discovery of type II inhibitors of TGFβ-activated kinase 1 (TAK1) and mitogen-activated protein kinase kinase kinase kinase 2 (MAP4K2)” (J Med Chem, 2015)
